According to patent US11046694B2, “Compounds and methods for treating bacterial infections” (Entasis Therapeutics, Inc., priority 2018, dated 2021):
In brackets after ≈: the same amount, converted by molar mass. Counter-ions that a name gives are not always drawn.

Key:
P. aeruginosa PBP1a = P. aeruginosa PBP1a (Pseudomonas aeruginosa, UniProt Q07806); assay type: biochemical; conditions: P. aeruginosa PBP1a 60 nM, BOCILLIN FL 30 nM, pH 7.0
P. aeruginosa PBP2 = biological target: T1, P. aeruginosa PBP2 (Pseudomonas aeruginosa, UniProt Q9X6V3); assay type: biochemical; conditions: P. aeruginosa PBP2 300 nM, BOCILLIN FL 30 nM, pH 6.2
T1 sequence (Q9X6V3 1-646): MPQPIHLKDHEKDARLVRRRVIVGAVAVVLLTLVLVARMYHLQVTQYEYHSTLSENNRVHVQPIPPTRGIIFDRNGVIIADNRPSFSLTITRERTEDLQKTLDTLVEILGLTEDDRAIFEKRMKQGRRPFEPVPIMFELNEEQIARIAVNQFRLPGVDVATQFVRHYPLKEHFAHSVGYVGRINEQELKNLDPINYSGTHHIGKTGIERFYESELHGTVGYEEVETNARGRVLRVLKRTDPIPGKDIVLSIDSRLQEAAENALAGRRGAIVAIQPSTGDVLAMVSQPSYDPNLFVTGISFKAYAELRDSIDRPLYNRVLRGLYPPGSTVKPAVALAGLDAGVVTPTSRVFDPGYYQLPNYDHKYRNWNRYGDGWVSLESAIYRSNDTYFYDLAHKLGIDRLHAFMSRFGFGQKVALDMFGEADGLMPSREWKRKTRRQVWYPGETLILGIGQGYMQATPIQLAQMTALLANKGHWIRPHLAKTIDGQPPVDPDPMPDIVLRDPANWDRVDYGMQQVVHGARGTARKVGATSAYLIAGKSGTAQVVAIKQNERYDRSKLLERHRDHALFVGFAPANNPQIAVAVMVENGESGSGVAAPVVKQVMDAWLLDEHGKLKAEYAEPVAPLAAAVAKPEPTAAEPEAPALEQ

P. aeruginosa PBP3 = P. aeruginosa PBP3 (Pseudomonas aeruginosa, UniProt G3XD46); assay type: biochemical; conditions: P. aeruginosa PBP3 60 nM, BOCILLIN FL 30 nM, pH 7.0
P. aeruginosa PBP3, sequence (G3XD46 whole entry): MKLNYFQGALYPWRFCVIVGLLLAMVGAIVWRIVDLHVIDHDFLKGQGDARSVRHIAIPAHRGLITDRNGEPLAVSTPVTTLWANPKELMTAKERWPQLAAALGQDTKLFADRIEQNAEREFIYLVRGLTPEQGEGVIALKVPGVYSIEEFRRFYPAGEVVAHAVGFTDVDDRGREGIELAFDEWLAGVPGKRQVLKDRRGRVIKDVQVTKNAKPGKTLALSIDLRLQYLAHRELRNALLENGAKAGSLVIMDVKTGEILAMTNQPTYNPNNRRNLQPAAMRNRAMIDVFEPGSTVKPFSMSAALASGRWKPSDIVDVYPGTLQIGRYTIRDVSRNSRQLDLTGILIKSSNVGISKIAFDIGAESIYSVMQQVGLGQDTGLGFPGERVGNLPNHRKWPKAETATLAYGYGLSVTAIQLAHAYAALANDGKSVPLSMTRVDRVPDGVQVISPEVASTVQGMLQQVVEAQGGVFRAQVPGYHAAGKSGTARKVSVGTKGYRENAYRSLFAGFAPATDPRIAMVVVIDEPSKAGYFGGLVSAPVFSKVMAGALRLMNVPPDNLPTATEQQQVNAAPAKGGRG

P. aeruginosa WT (PAO1) = test: MIC, CLSI broth microdilution, P. aeruginosa; assay type: cell-based; conditions: Pseudomonas aeruginosa, PAO1; CLSI broth microdilution; read-out: P. aeruginosa WT (PAO1) MIC
E. coli (ATCC25922) = test: MIC against E. coli; conditions: Escherichia coli, ATCC25922, read-out: E. coli MIC (ATCC25922) (mg/L)
A. baumannii (ARC3495) = test: MIC against A. baumannii; conditions: Acinetobacter baumannii, read-out: A. baumannii MIC (ARC3495) (mg/L)
[1] = system: K. pneumoniae (ATCC700603); test: MIC against K. pneumoniae; conditions: Klebsiella pneumoniae, ATCC700603, read-out: K. pneumoniae MIC (ATCC700603)
B. pseudomallei = test: microbe, parasite or virus in culture; conditions: Burkholderia pseudomallei, read-out: MIC against B. pseudomallei
B. mallei = test: microbe, parasite or virus in culture; conditions: Burkholderia mallei, read-out: MIC against B. mallei
F. tularensis = test: microbe, parasite or virus in culture; conditions: Francisella tularensis, read-out: MIC against F. tularensis
Y. pestis = test: microbe, parasite or virus in culture; conditions: Yersinia pestis, read-out: MIC against Y. pestis
B. anthracis = test: microbe, parasite or virus in culture; conditions: Bacillus anthracis, read-out: MIC against B. anthracis

P. aeruginosa PBP1a, sequence (Q07806 whole entry): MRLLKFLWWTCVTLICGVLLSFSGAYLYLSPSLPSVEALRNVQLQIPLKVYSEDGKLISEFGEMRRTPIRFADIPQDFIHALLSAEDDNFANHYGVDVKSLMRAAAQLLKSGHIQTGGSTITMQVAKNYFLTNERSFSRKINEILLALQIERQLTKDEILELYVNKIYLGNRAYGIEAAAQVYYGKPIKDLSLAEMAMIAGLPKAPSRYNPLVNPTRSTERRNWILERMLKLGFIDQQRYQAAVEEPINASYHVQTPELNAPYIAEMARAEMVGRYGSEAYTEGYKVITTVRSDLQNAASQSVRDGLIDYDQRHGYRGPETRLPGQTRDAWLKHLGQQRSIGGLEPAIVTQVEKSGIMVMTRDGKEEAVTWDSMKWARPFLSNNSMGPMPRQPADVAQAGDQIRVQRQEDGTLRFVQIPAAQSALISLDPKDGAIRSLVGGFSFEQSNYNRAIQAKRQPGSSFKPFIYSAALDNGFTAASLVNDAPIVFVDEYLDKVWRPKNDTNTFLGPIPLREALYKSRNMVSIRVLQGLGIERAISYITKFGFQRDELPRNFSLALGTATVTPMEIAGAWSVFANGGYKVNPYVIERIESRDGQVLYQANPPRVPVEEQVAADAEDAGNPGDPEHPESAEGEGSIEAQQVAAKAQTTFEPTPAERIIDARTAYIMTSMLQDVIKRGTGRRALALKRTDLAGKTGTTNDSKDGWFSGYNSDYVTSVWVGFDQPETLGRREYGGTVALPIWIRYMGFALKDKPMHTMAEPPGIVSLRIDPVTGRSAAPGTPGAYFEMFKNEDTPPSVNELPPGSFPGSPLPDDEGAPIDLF

| Structure (SMILES) | PBP1a acylation rate, k(on) (M^−1 · s^−1) (P. aeruginosa PBP1a) | PBP2 acylation rate, k(on) (M^−1 · s^−1) (P. aeruginosa PBP2) | PBP3 acylation rate, k(on) (M^−1 · s^−1) (P. aeruginosa PBP3) | MIC (P. aeruginosa WT (PAO1)) [µg/mL] | MIC (E. coli (ATCC25922)) [mg/L] | MIC (A. baumannii (ARC3495)) [mg/L] | MIC [1] [µg/mL] | MIC (B. pseudomallei) [µg/mL] | MIC (B. mallei) [µg/mL] | MIC (F. tularensis) [µg/mL] | MIC (Y. pestis) [µg/mL] | MIC (B. anthracis) [µg/mL] |
| --- | --- | --- | --- | --- | --- | --- | --- | --- | --- | --- | --- | --- |
| CN/C(=N\O)[C@@H]1c2c(cnn2C)[C@@H]2CN1C(=O)N2OS(=O)(=O)O (stereo in doubt) [Example 40, Sodium (4R*,8S*)-8-((Z)—N′-hydroxy-N-methylcarbamimidoyl)-1-methyl-6-oxo-4,8-dihydro-1H-4,7-methanopyrazolo[3,4-e][1,3]diazepin-5(6H)-yl hydrogen sulfate] | ** (** represents a k(on) of 100 to 10,000 M^−1 · s^−1) | * (* represents a k(on) < 100 M^−1 · s^−1) | *** (*** represents a k(on) > 10,000 M^−1 · s^−1) | < 8 | < 8 | < 8 | < 8 | < 4 | < 4 | < 4 | < 4 | < 4 |
| Cn1ncc2c1[C@@H](/C(=N/O)C(N)=O)N1C[C@@H]2N(OS(=O)(=O)O)C1=O [Example 67, (4R,8S)-8-((Z)-2-amino-1-(hydroxyimino)-2-oxoethyl-1-methyl-6-oxo-4,8-dihydro-1H-4,7-methanopyrazolo[3,4-e][1,3]diazepin-5(6H)-yl hydrogen sulfate] | * (* represents a k(on) < 100 M^−1 · s^−1) | * (* represents a k(on) < 100 M^−1 · s^−1) | ** (** represents a k(on) of 100 to 10,000 M^−1 · s^−1) | > 16 | < 8 | > 16 | > 16 | – | – | – | – | – |
| Cn1ncc2c1[C@@H](C1=NOC(Cc3ccccc3)C1)N1C[C@@H]2N(OS(=O)(=O)O)C1=O (mixture of isomers) [Example 36] | ** (** represents a k(on) of 100 to 10,000 M^−1 · s^−1) | * (* represents a k(on) < 100 M^−1 · s^−1) | ** (** represents a k(on) of 100 to 10,000 M^−1 · s^−1) | > 16 | < 8 | > 16 | > 16 | – | – | – | – | – |
| CN(O)/C(=N\O)[C@@H]1c2c(cnn2C)[C@@H]2CN1C(=O)N2OS(=O)(=O)O (racemic) [Example 9] | ** (** represents a k(on) of 100 to 10,000 M^−1 · s^−1) | * (* represents a k(on) < 100 M^−1 · s^−1) | ** (** represents a k(on) of 100 to 10,000 M^−1 · s^−1) | < 8 | < 8 | 8 to 16 (≈ 22.1 to 44.2 µM) | 8 to 16 (≈ 22.1 to 44.2 µM) | – | – | – | – | – |
| Cn1ncc2c1[C@@H](/C(CNS(N)(=O)=O)=N/O)N1C[C@@H]2N(OS(=O)(=O)O)C1=O [Example 56, (4R,8S)-8-((E)-1-(hydroxyamino)-2-(sulfamoyl)amino)ethyl)-1-methyl-6-oxo-4,8-dihydro-1H-4,7-methanopyrazolo[3,4-e][1,3]diazepin-5(6H)-yl hydrogen sulfate] | ** (** represents a k(on) of 100 to 10,000 M^−1 · s^−1) | * (* represents a k(on) < 100 M^−1 · s^−1) | ** (** represents a k(on) of 100 to 10,000 M^−1 · s^−1) | > 16 | < 8 | > 16 | > 16 | – | – | – | – | – |
| CN/C(=N\O)[C@@H]1c2c(cnn2CCCCN)[C@@H]2CN1C(=O)N2OS(=O)(=O)O [Example 68, (4R,8S)-1-(4-aminobutyl)-8-((Z)—N′-hydroxy-N-methylcarbamimidoyl)-6-oxo-4,8-dihydro-1H-4,7-methanopyrazolo[3,4-e][1,3]diazepin-5(6H)-yl hydrogen sulfate] | * (* represents a k(on) < 100 M^−1 · s^−1) | * (* represents a k(on) < 100 M^−1 · s^−1) | ** (** represents a k(on) of 100 to 10,000 M^−1 · s^−1) | < 8 | 8 to 16 | 8 to 16 | > 16 | – | – | – | – | – |
| CCN/C(=N\O)[C@@H]1c2c(cnn2C)[C@@H]2CN1C(=O)N2OS(=O)(=O)O (racemic) [Example 5] | ** (** represents a k(on) of 100 to 10,000 M^−1 · s^−1) | * (* represents a k(on) < 100 M^−1 · s^−1) | ** (** represents a k(on) of 100 to 10,000 M^−1 · s^−1) | > 16 | < 8 | > 16 | > 16 | – | – | – | – | – |
| CN/C(=N\O)[C@H]1c2c(cnn2C)[C@H]2CN1C(=O)N2OS(=O)(=O)O (stereo in doubt) [Example 41, Sodium (4S*,8R*)-8-((Z)—N′-hydroxy-N-methylcarbamimidoyl)-1-methyl-6-oxo-4,8-dihydro-1H-4,7-methanopyrazolo[3,4-e][1,3]diazepin-5(6H)-yl hydrogen sulfate] | * (* represents a k(on) < 100 M^−1 · s^−1) | * (* represents a k(on) < 100 M^−1 · s^−1) | ** (** represents a k(on) of 100 to 10,000 M^−1 · s^−1) | > 16 | < 8 | > 16 | > 16 | – | – | – | – | – |
| Cn1ncc2c1[C@@H](/C(=N/O)NCc1ccc(N)cc1)N1C[C@@H]2N(OS(=O)(=O)O)C1=O (racemic) [Example 12] | ** (** represents a k(on) of 100 to 10,000 M^−1 · s^−1) | * (* represents a k(on) < 100 M^−1 · s^−1) | ** (** represents a k(on) of 100 to 10,000 M^−1 · s^−1) | > 16 | < 8 | > 16 | > 16 | – | – | – | – | – |
| CN/C(=N\OC)[C@@H]1c2c(cnn2C)[C@@H]2CN1C(=O)N2OS(=O)(=O)O [Example 4, (4R,8S)-8-((Z)—N′-methoxy-N-methylcarbamimidoyl)-1-methyl-6-oxo-4,8-dihydro-1H-4,7-methanopyrazolo[3,4-e][1,3]diazepin-5(6H)-yl hydrogen sulfate] | ** (** represents a k(on) of 100 to 10,000 M^−1 · s^−1) | * (* represents a k(on) < 100 M^−1 · s^−1) | *** (*** represents a k(on) > 10,000 M^−1 · s^−1) | > 16 | < 8 | > 16 | > 16 | – | – | – | – | – |
| Cn1ncc2c1[C@@H](C1=NOC(CO)C1)N1C[C@@H]2N(OS(=O)(=O)O)C1=O (stereo partly drawn) [Example 38, (4R,8S)-8-(5-(hydroxymethyl)-4,5-dihydroisoxazol-3-yl)-1-methyl-6-oxo-4,8-dihydro-1H-4,7-methanopyrazolo[3,4-e][1,3]diazepin-5(6H)-yl hydrogen sulfate] | * (* represents a k(on) < 100 M^−1 · s^−1) | * (* represents a k(on) < 100 M^−1 · s^−1) | * (* represents a k(on) < 100 M^−1 · s^−1) | > 16 | 8 to 16 | > 16 | > 16 | – | – | – | – | – |
| CCN1CCN(C(=O)NC/C(=N\O)[C@@H]2c3c(cnn3C)[C@@H]3CN2C(=O)N3OS(=O)(=O)O)C(=O)C1=O [Example 55, (4R,8S)-8-((E)-2-(4-ethyl-2,3-dioxopiperazine-1-carboxamido)-1-(hydroxyimino)ethyl)-1-methyl-6-oxo-4,8-dihydro-1H-4,7-methanopyrazolo[3,4-e][1,3]diazepin-5(6H)-yl hydrogen sulfate] | * (* represents a k(on) < 100 M^−1 · s^−1) | * (* represents a k(on) < 100 M^−1 · s^−1) | * (* represents a k(on) < 100 M^−1 · s^−1) | > 16 | < 8 | > 16 | > 16 | – | – | – | – | – |
